The structures appear in SMILES notation. pIC50: −log10 of the molar value.

The target in the assay is cGMP-specific PDE (PDE5) (UniProt O76074). The experiment in a line: In vitro PDE inhibitory activity (IC50) against cGMP PDE5. Format: biochemical, human or rabbit. The following applies: in vitro activities as inhibitors of cGMP PDE5. The procedure:
In vitro PDE inhibitory activities against cyclic guanosine 3′,5′-monophosphate (cGMP) and cyclic adenosine 3′,5′-monophosphate (cAMP) phosphodiesterases were determined by measurement of their IC50 values (the concentration of compound required for 50% inhibition of enzyme activity).
The required PDE enzymes were isolated from a variety of sources, including human corpus cavernosum, human and rabbit platelets, human cardiac ventricle, human skeletal muscle and bovine retina, essentially by the method of W. J. Thompson and M. M. Appleman (Biochem., 1971, 10, 311). In particular, the cGMP-specific PDE (PDE5) and the cGMP-inhibited cAMP PDE (PDE3) were obtained from human corpus cavernosum tissue, human platelets or rabbit platelets; the cGMP-stimulated PDE (PDE2) was obtained from human corpus cavernosum; the calcium/calmodulin (Ca/CAM)-dependent PDE (PDE1) from human cardiac ventricle; the cAMP-specific PDE (PDE^4) from human skeletal muscle; and the photoreceptor PDE (PDE6) from bovine retina.
Assays were performed using a modification of the “batch” method of W. J. Thompson et al. (Biochem., 1979, 18, 5228).
Turning to `CCCOc1ccc(S(=O)(=O)N2CCN(CCO)CC2)cc1-c1nc2c(CCC)nn(Cc3ccccn3)c2c(=O)[nH]1` [Example 4, 5-{5-[4-(2-Hydroxyethyl)piperazin-1-ylsulphonyl]-2-n-propoxyphenyl}-3-n-propyl-1-(pyridin-2-yl)methyl-1,6-dihydro-7H-pyrazolo[4,3-d]pyrimidin-7-one], the negative logarithm of the IC50 (pIC50) (in general, the negative decadic logarithm of the IC50, by convention in mol/L) was 8.66.

In the case of `CCCOc1ccc(S(=O)(=O)N2CCN(CCO)CC2)cc1-c1nc2c(CCC)n(Cc3ccccn3)nc2c(=O)[nH]1` [Example 7, 5-{5-[4-(2-Hydroxyethyl)piperazin-1-ylsulphonyl]-2-n-propoxyphenyl}-3-n-propyl-2-(pyridin-2-yl)methyl-2,6-dihydro-7H-pyrazolo[4,3-d]pyrimidin-7-one], the negative-log IC50 (pIC50) was 8.59. This pIC50 and that of the compound before are within 0.2 log units of each other.

`CCCOc1ccc(S(=O)(=O)N2CCN(C)CC2)cc1-c1nc2c(CCC)nn(Cc3ncnn3C)c2c(=O)[nH]1` [Example 31, 5-[5-(4-Methylpiperazin-1-ylsulphonyl)-2-n-propoxyphenyl]-1(1-methyl-1,2,4-triazol-5-yl)methyl-3-n-propyl-1,6-dihydro-7H-pyrazolo-[4,3-d]pyrimidin-7-one] had a pIC50 of 8.40.

Compound `CCCc1nn(Cc2ccccc2)c2c(=O)[nH]c(-c3cc(S(=O)(=O)N4CCN(C)CC4)ccc3OCC)nc12` [Example 41, 1-Benzyl-5-[2-ethoxy-5-(4-methylpiperazin-1-ylsulphonyl)phenyl]-3-n-propyl-1,6-dihydro-7H-pyrazolo[4,3-d]pyrimidin-7-one] showed a pIC50 of 8.41. This pIC50 and that of the compound before are within 0.2 log units of each other.

Take `CCCOc1ccc(S(=O)(=O)N2CCN(C)CC2)cc1-c1nc2c(CCC)n(Cc3ncnn3C)nc2c(=O)[nH]1` [Example 77, 5-[5-(4-Methylpiperazin-1-ylsulphonyl)-2-n-propoxyphenyl]-2-(1-methyl-1,2,4-triazol-5-yl)methyl-3-n-propyl-2,6-dihydro-7H-pyrazolo[4,3-d]pyrimidin-7-one]: the pIC50 was 8.15.

Regarding `CCCc1c2nc(-c3cc(S(=O)(=O)N4CCN(C)CC4)ccc3OCC)[nH]c(=O)c2nn1Cc1ccccc1` [Example 87, 2-Benzyl-5-[2-ethoxy-5-(4-methylpiperazin-1-ylsulphonyl)phenyl]-3-n-propyl-2,6-dihydro-7H-pyrazolo[4,3-d]pyrimidin-7-one], the pIC50 is 7.92.

With `CCCOc1ccc(S(=O)(=O)N2CCN(CC)CC2)cc1-c1nc2c(CCC)nn(CCN3CCOCC3)c2c(=O)[nH]1` [Example 100, 5-[5-(4-Ethylpiperazin-1-ylsulphonyl)-2-n-propoxyphenyl]-1-(2-morpholin-4-ylethyl)-3-n-propyl-1,6-dihydro-7H-pyrazolo[4,3-d]pyrimidin-7-one], the negative-log IC50 (pIC50) was 8.72.

The compound `CCCOc1ccc(S(=O)(=O)N2CCN(CC)CC2)cc1-c1nc2c(CCC)n(CCN3CCOCC3)nc2c(=O)[nH]1` [Example 108, 5-[5-(4-Ethylpiperazin-1-ylsulphonyl)-2-n-propoxyphenyl]-2-(2-morphin-4-ylethyl)-3-n-propyl-2,6-dihydro-7H-pyrazolo[4,3-d]pyrimidin-7-one] gave a pIC50 of 8.68. This pIC50 and that of the compound before are within 0.2 log units of each other.

`CCCOc1ccc(S(=O)(=O)N2CCN(CC)CC2)cc1-c1nc2c(CCC)n(-c3ccccc3NS(C)(=O)=O)nc2c(=O)[nH]1` [Example 117, 5-[5-(4-Ethylpiperazin-1-ylsulphonyl)-2-n-propoxyphenyl]-2-(2-methanesulphonamidophenyl)-3-n-propyl-2,6-dihydro-7H-pyrazolo[4,3-d]-pyrimidin-7-one] showed a pIC50 of 8.49.

`CCCOc1ccc(S(=O)(=O)N2CCN(C)CC2)cc1-c1nc2c(CCC)n(-c3ncccn3)nc2c(=O)[nH]1` [Example 125, 5-[5-(4-Methylpipierazin-1-ylsulphonyl)-2-n-propoxyphenyl]-3-n-propyl-2-pyrimidin-2-yl-2,6-dihydro-7H-pyrazolo[4,3-d]pyrimidin-7-one] had a pIC50 of 8.55.

As for `CCCc1c2nc(-c3cc(S(=O)(=O)N4CCN(C)CC4)ccc3OCC)[nH]c(=O)c2nn1CC1CCC1` [Example 126, 2-Cyclobutylmethyl-5-[2-ethoxy-5-(4-methylpiperazin-1-ylsulphonyl)phenyl]-3-n-propyl-2,6-dihydro-7H-pyrazolo[4,3-d]pyrimidin-7-one], the negative-log IC50 (pIC50) is 8.04.

Take `CCCOc1ccc(S(=O)(=O)N2CCN(CC)CC2)cc1-c1nc2c(CCC)n(Cc3cccc[n+]3[O-])nc2c(=O)[nH]1` [Example 129, 5-[5-(4-Ethylpiperazin-1-ylsulphonyl)-2-n-propoxyphenyl]-2-(1-oxidopyridin-2-yl)methyl-3-n-propyl-2,6-dihydyro-7H-pyrazolo[4,3-d]pyrimidin-7-one]: the negative logarithm of the IC50 (pIC50) was 8.19.

The values above are taken from patent US6916927B2, “Pyrazolopyrimidinones which inhibit type 5 cyclic guanosine 3′,5′-monophosphate phosphodiesterase (cGMP-PDE5) for the treatment of sexual dysfunction” (Pfizer Inc., priority 1997, dated 2005).
